Source: US20090124572A1, “Iron-containing nutritional supplement” (priority 2007, published 2009)

Legend:
[1] = dissolved in water; cited from earlier work
Caco-2 cells = assay: In-solution treatment of Caco-2 cells, ferritin formation as index of iron uptake/bioavailability (Experiments 1 and 2); settings: Experiment 1, 6-well plates, iron 20 μmol/L, AA 400 μmol/L, 20 hours
Experimental: Cell culture. Caco-2 cells were obtained from the American Type Culture Collection at passage 17 and used in experiments at passage 29-35. Cells were seeded at a density of 50,000 cells/cm^2 in collagen-treated 6-well or 24-well plates. The integrity of the monolayer was verified by optical microscopy. […] The cells were maintained in Dulbecco's Modified Eagle Medium (DMEM) plus 1% antibiotic/antimycotic solution, 25 mmol/L HEPES and 10% fetal bovine serum; the medium was changed every 2 days. Two days before the experiment, the growth medium was removed from each culture well, and the cell layer was washed and maintained with Minimum Essential Media (MEM) at pH 7.0. […] This enriched MEM contained less than 80 μg iron/L. Iron uptake experiments were conducted 13 days post-seeding.
Harvesting of Caco-2 cells for ferritin analysis. […] Ferritin concentration and total protein concentration were determined on an aliquot of the harvested cell suspension with a one-stage sandwich immunoradiometric assay and a colorimetric assay, respectively. […] Therefore, the ratio of ferritin/total protein expressed as ng ferritin/mg protein, was used as an index of the cellular iron uptake.
In-solution treatment. […] Cellular ferritin and total protein was then analyzed and compared among all treatments. […]

Question: With ferrous sulfate as the compound, how does the “pH of aqueous solution” value [1] read?
Answer: Its value is “about 2”.

Question: With `[Cl][Fe]([Cl])[Cl]` [FeCl3, ferric chloride] as the compound, how does the “ferritin formation in Caco-2 cells in the presence of ascorbic acid” value (Caco-2 cells) read?
Answer: Its value is “significantly lower”.
